According to EP2316926B1, “Enantioselective production of alpha-hydroxy carbonyl compounds” (priority 2009, dated 2011):
“And” between values parts separate entries of the source, which are not always exact repeats. Equal entries are not always repeated. Where two headings read alike, the source gives them in different places. Values belong to the compound of their own block, whether it stands above or below them.

How the values were obtained:
Format in all cases: biochemical
Gox0644 [1] = biological target: T1, Gox0644 (Gluconobacter oxydans, UniProt Q5FT75); assay: NADPH-dependent α-ketocarbonyl reductase activity assay (rate of decrease of NADPH at 340 nm); conditions: for reduction by Gox0644: result in words; for Specific Activity (U/mg)*: Table 4, cofactor NADPH, U/mg = µmol/mg·min; for Gox0644 U/mg*: Table 3, 10 mM substrate, 40 mM K-phosphate buffer pH 7.0, 0.05 mM NAD(P)H, 30 °C, U/mg = µmol x min^-1 x mg protein^-1
Protocol: Reactions were induced by addition of enzyme or substrate. One unit was defined as the amount of enzyme activity catalyzing the conversion of 1 µmol of pyridine nucleotide per min at 30 °C. NMR Analysis of Biotransformation Products: Biotransformations were extracted with equal volumes of CDCl3. and ^13C NMR spectra were recorded on a Bruker Avance 300 DPX spectrometer operating at 300 MHz for ^1H NMR and at 75 MHz for ^13C NMR, respectively.
Reactions were induced by addition of enzyme or substrate. One unit of activity was defined as the amount of enzyme activity catalyzing the conversion of 1 µmol of pyridine nucleotide per min at 30 °C.
The standard reaction mixture (1 ml) for the reduction reactions of substrates contained 10 mM substrate, 40 mM potassium phosphate buffer (K-phosphate buffer) pH 7.0, 0.05 mM NAD(P)H, and the enzyme unless otherwise noted. Reactions were induced by addition of enzyme or substrate. One unit of activity was defined as the amount of enzyme activity catalyzing the conversion of 1 µmol of pyridine nucleotide per min at 30 °C. […] Table 3: Enzymatic activities with α-diketones, α-ketoaldehydes and α-ketoesters

Gox1615 = biological target: T2, Gox1615 (Gluconobacter oxydans, UniProt Q5FQJ0); assay: as above; conditions: for Gox1615 U/mg*: Table 3, 10 mM substrate, 40 mM K-phosphate buffer pH 7.0, 0.05 mM NAD(P)H, 30 °C, U/mg = µmol x min^-1 x mg protein^-1; for Specific Activity (U/mg)*: Table 5, cofactor NADPH, U/mg = µmol/mg·min
T2 sequence (Q5FQJ0 1-332): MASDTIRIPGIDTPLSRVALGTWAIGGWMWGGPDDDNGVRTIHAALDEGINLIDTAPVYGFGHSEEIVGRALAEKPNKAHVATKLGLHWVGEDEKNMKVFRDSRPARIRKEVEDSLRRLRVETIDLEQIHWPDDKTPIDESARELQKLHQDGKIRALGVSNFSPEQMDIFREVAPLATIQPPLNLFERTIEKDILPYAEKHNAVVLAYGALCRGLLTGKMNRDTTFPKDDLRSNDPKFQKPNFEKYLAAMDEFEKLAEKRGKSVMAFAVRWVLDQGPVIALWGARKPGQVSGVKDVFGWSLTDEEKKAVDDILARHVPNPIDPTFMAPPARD
Protocol: Measurement of enzyme activity: NADPH-dependent α-ketocarbonyl reductases were assayed by a routine method used for NAD(P)-linked enzymes by recording the rate of decrease of NADPH at 340 nm (ε = 6.22 mM^-1 x cm^-1)) with substrates at 30 °C. The reaction mixture (1 ml) for reduction of α-ketocarbonyl substrates contained 10 mM substrate, 40 mM potassium phosphate buffer pH 7.0, 0.025 mM NAD(P)H and the enzyme. Reactions were induced by addition of enzyme or substrate. One unit was defined as the amount of enzyme activity catalyzing the conversion of 1 µmol of pyridine nucleotide per min at 30 °C. NMR Analysis of Biotransformation Products: Biotransformations were extracted with equal volumes of CDCl3. and ^13C NMR spectra were recorded on a Bruker Avance 300 DPX spectrometer operating at 300 MHz for ^1H NMR and at 75 MHz for ^13C NMR, respectively. Spectra were processed using Bruker TonSpin 1.3 for Windows software and calibrated to the residual solvent peak of CDCl3 (δH = 7.26 / δC = 77.0).
NADPH-dependent α-ketocarbonyl reductases were assayed by a routine method used for NAD(P)-linked enzymes by recording the rate of decrease of NADPH at 340 nm (ε = 6.22 mM^-1.cm^-1) with substrates at 30 °C. The reaction mixture (1 ml) for reduction of α-ketocarbonyl substrates contained 10 mM substrate, 40 mM potassium phosphate buffer pH 7.0, 0.025 mM NADPH, and the enzyme. Reactions were induced by addition of enzyme or substrate. One unit of activity was defined as the amount of enzyme activity catalyzing the conversion of 1 µmol of pyridine nucleotide per min at 30 °C.
Purified NAD(P)-dependent oxidoreductases were assayed at 30 °C by a routine method used for NAD(P)-linked enzymes by recording the rate of decrease of NAD(P)H at 340 nm (ε = 6.22 mM^-1˙cm^-1) with substrates capable of reduction reactions. The standard reaction mixture (1 ml) for the reduction reactions of substrates contained 10 mM substrate, 40 mM potassium phosphate buffer (K-phosphate buffer) pH 7.0, 0.05 mM NAD(P)H, and the enzyme unless otherwise noted. Reactions were induced by addition of enzyme or substrate. One unit of activity was defined as the amount of enzyme activity catalyzing the conversion of 1 µmol of pyridine nucleotide per min at 30 °C. Measurement of the protein content was performed by the method of Bradford (Bradford M.M., Anal. Biochem. 72:248-254 (1976)). Table 3: Enzymatic activities with α-diketones, α-ketoaldehydes and α-ketoesters

Gox1122 = biological target: T3, Gox1122 (Gluconobacter oxydans, UniProt Q5FRV6); assay: Aldehyde dehydrogenase activity and kinetic constants
T3 sequence (Q5FRV6 1-463): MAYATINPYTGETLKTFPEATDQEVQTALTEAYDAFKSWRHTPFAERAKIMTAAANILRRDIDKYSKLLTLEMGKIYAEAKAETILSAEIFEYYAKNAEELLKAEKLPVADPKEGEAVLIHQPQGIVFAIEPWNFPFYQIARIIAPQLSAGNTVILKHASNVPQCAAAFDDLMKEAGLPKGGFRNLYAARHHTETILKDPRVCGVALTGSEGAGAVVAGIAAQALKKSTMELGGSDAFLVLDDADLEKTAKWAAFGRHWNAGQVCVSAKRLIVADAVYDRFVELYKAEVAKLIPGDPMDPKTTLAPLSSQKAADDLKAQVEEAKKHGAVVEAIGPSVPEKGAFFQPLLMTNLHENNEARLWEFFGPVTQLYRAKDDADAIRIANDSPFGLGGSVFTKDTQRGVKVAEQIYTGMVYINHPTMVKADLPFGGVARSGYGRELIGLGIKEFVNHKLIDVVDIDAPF
Protocol: The enzyme is used in a combined enzymatic reaction between the NADPH-dependent reductases (see above) that form α-hydroxy carbonyl compounds.
Determination of pH and temperature optima and enzyme kinetics: The optimum pH for enzyme activities was determined by a modified method of Salusjärvi, T. et al., Appl. Microbiol. Biotechnol. 65:306-314 (2004) using the following buffer system (50 mM final concentration each): sodium acetate pH 4.5 - 6.5, potassium phosphate pH 6.5 - 8.0, Tris-HCl pH 8.0 - 10. Temperature optima for the biocatalysts were determined under standard reaction conditions at temperatures ranging from 20 - 80 °C. The Michaelis constant (Km) for the proteins was determined from purified enzyme by Lineweaver-Burk plots. Assays were performed at optimum pH for each enzyme and at 30 °C using the best substrate and a targeted substrate. The Km for each substrate was calculated using concentrations of 0.0025 to 10 mM, and the Km NAD(P)H and NAD(P) was calculated using concentrations of 0.01 to 0.5 mM
2.9 Kinetic parameters of the keto carbonyl reductases: Kinetic constants were determined from purified enzyme by Lineweaver-Burk plots. The Km and Vmax values for the substrates were calculated using concentrations of 0.025 to 10 mM. […] 8.

Gox0644 [2] = biological target: T1, Gox0644; assay: Acetaldehyde tolerance test
Excerpt: The products derived from the α-diketone and α-ketoaldehyde substrate reactions were generated according to the cofactor regeneration protocol. This method overcomes the dependence of the enzymes on reduced cofactor by coupling the substrate reactions of Gox0644 and Gox1615, with the cofactor NADP reduction reaction based on the acetaldehyde oxidoreductase Gox1122 using acetaldehyde. […] In both the reactions with phenylglyoxal and 2,3-pentanedione, Gox0644 activity remained similar to the control reaction consisting of a reaction without acetaldehyde (Tab. 9/10). […] In the reaction with 2,3-pentanedione there was a slight decrease of about 20% from the control, however, the activity levels were still very high at 50.2 U/mg. […] Table 9: Gox0644 acetaldehyde tolerance tests with phenylglyoxal

reduction by Gox0644 (Gox0644 [1]): reduced
SMILES: O=C(O)C(=O)[C@@H](O)[C@H](O)C(=O)CO [2,5-diketogluconate]

Gox1615 U/mg* (Gox1615): 4.7 U/mg | Specific Activity (U/mg)* (Gox1615): 4.7 U/mg | Gox0644 U/mg* (Gox0644 [1]): 63.1 U/mg
SMILES: CC(=O)C(=O)OCCC(C)C [isoamyl pyruvate]

reduction by Gox0644 (Gox0644 [1]): not reduced
SMILES: CC(=O)CC(C)=O [acetylacetone]

Gox1615 U/mg* (Gox1615): 6.5 U/mg | Specific Activity (U/mg)* (Gox1615): 6.5 U/mg | Gox0644 U/mg* (Gox0644 [1]): 50.1 U/mg
SMILES: CCCC(=O)C(C)=O [2,3-hexanedione]

reduction by Gox0644 (Gox0644 [1]): not reduced
SMILES: CCC(=O)C(=O)O [2-oxo butyric acid]

reduction by Gox0644 (Gox0644 [1]): not reduced
SMILES: CC(=O)C(C)O (stereo not shown) [acetoin]

Km (Gox1122; cofactor NADP, read-out: apparent Km value): 73 µM
SMILES: NC(=O)c1ccc[n+]([C@@H]2O[C@H](COP(=O)(O)OP(=O)(O)OC[C@H]3O[C@@H](n4cnc5c(N)ncnc54)[C@H](OP(=O)(O)O)[C@@H]3O)[C@@H](O)[C@H]2O)c1 [NADP]

Gox1615 U/mg* (Gox1615): 1.2 U/mg | Specific Activity (U/mg)* (Gox1615): 1.2 U/mg | Gox0644 U/mg* (Gox0644 [1]): 92.8 U/mg | activity (Gox0644 [1]; substrates showing the highest activities): 93 U/mg protein
SMILES: CCOC(=O)C(C)=O [ethyl pyruvate]

The remaining lines, values behind:

SMILES: O=C(C(=O)c1ccccc1)c1ccccc1 [benzil]
Specific Activity (U/mg)* (Gox0644 [1]): 14.0 U/mg

SMILES: CC(C)=O [acetone]
reduction by Gox0644 (Gox0644 [1]): not reduced

SMILES: CC(=O)C(C)=O [2,3-butanedione]
Specific Activity (U/mg)* (Gox1615): 6.0 U/mg | Specific Activity (U/mg)* (Gox0644 [1]): 60.0 U/mg

SMILES: CC(=O)O [acetic acid]
reverse reduction reaction (Gox1122; using NADPH, pH range of 4-10): No reverse reduction reaction

SMILES: CC=O [acetaldehyde]
Gox0644 activity (Gox0644 [2]; substrate 2,3-pentanedione, 10mM acetaldehyde, control without acetaldehyde 65.7 U/mg): 67.9 U/mg | Gox0644 activity (Gox0644 [2]; substrate 2,3-pentanedione, 30mM acetaldehyde, control without acetaldehyde 65.7 U/mg): 59.5 U/mg | Gox0644 activity (Gox0644 [2]; substrate 2,3-pentanedione, 50mM acetaldehyde, control without acetaldehyde 65.7 U/mg): 50.2 U/mg and 50.1 U/mg | Gox0644 activity (Gox0644 [2]; substrate phenylglyoxal, 10mM acetaldehyde, control without acetaldehyde 38.5 U/mg): 29.6 U/mg | Gox0644 activity (Gox0644 [2]; substrate phenylglyoxal, 30mM acetaldehyde, control without acetaldehyde 38.5 U/mg): 37.1 U/mg | Gox0644 activity (Gox0644 [2]; substrate phenylglyoxal, 50mM acetaldehyde, control without acetaldehyde 38.5 U/mg): 39.3 U/mg | Gox0644 activity (Gox0644 [2]; substrate phenylglyoxal, 100mM acetaldehyde, control without acetaldehyde 38.5 U/mg): 31.2 U/mg | inhibition at 100000 µM (Gox0644 [2]; substrate phenylglyoxal, 100 mM of acetaldehyde, versus control, read-out: decrease in activity): ≤ 20% | Vmax (Gox1122; 40 mM KPB at optimal pH and 30 °C): 196 µmol/min x mg | Km (Gox1122; 40 mM KPB at optimal pH and 30 °C, read-out: Km): 200 µM | apparent Vmax value (Gox1122; fixed 0.5 mM NADP, acetaldehyde as the varied substrate): 196 U/mg protein | Km (Gox1122; several concentrations of the aldehyde from 0.0025 to 10 mM, read-out: Km value): 255 µM

SMILES: CCC(=O)C(=O)CC [3,4-hexanedione]
Gox1615 U/mg* (Gox1615): 2.0 U/mg | Specific Activity (U/mg)* (Gox1615): 2.0 U/mg | Gox0644 U/mg* (Gox0644 [1]): 7.3 U/mg

SMILES: O=CC=O [glyoxal]
Specific Activity (U/mg)* (Gox1615): 5 U/mg | Specific Activity (U/mg)* (Gox0644 [1]): 1.1 U/mg
